Laboratory results: patent US9738604B2, “Ethynylbenzene derivatives” (Duke University, priority 2010, dated 2017)
In brackets after ≈: the same amount, converted by molar mass. Read-outs that look alike come from different tables or passages of the source.

Experiments:
[1] = system: E. coli W3110RL; experiment: microbe, parasite or virus in culture; type: cell-based; conditions: for MIC E. coli W3110RL: E. coli with lpxC of R. leguminosarum, 22 hours at 37° C., MTT
[2] = system: Acinetobacter Baumannii antibiotic susceptible strain (Sus. A.b. Isolate); experiment: Disk diffusion assay, antibiotic susceptible strain; type: cell-based; parameters: key to diameter of the growth inhibition, Sus. A.b. Isolate: A: no detectable inhibition; B: 6-10 mm; C: 11-15 mm; D: ≧16; conditions: 2 μg of compound per disc, disc 6 mm in diameter
[3] = system: P. aeruginosa (PAO1); experiment: MIC, P. aeruginosa; type: cell-based; conditions: for MIC P. aeruginosa (PAO1): 22 hours at 37° C., MTT
[4] = system: N. gonorrhoeae FA19; experiment: MIC, N. gonorrhoeae drug-sensitive strain; type: cell-based
[5] = system: E. coli W3110PA; experiment: microbe, parasite or virus in culture; type: cell-based; conditions: for MIC E. coli W3110PA: E. coli with lpxC of P. aeruginosa, 22 hours at 37° C., MTT
[6] = system: Acinetobacter Baumannii multidrug-resistant strain (MDR A.b. Isolate); experiment: Disk diffusion assay, multidrug-resistant strain; type: cell-based; parameters: key to diameter of the growth inhibition, MDR A.b. Isolate: A: no detectable inhibition; B: 6-10 mm; C: 11-15 mm; D: ≧16; conditions: 2 μg of compound per disc, disc 6 mm in diameter
[7] = system: N. gonorrhoeae 35/02; experiment: MIC, N. gonorrhoeae drug-resistant strain; type: cell-based; conditions: drug-resistant strain 35/02
[8] = system: E. coli W3110; experiment: microbe, parasite or virus in culture; type: cell-based
[9] = system: N. gonorrhoeae 35/02; conditions: resistance profile of strain 35/02; cited from earlier work

Row | Molecule | MIC E. coli W3110RL [1] | diameter of the growth inhibition, Sus. A.b. Isolate [2] | MIC P. aeruginosa (PAO1) [3] | MIC N. gonorrhoeae FA 19 [4] | MIC E. coli W3110PA [5] | diameter of the growth inhibition, MDR A.b. Isolate [6] | MIC N. gonorrhoeae 35/02 [7] | MIC E. coli W3110 [8] | MIC [9] [µg/mL] | other results
1 | C[C@@H](O)[C@H](NC(=O)c1ccc(C#CC#Cc2ccc(N)cc2)cc1)C(=O)NO [CPD-011, (2S,3R)-2-{4′-[(4″-aminophenyl)buta-1′,3′-diynyl]benzamido}-1,3-dihydroxybutanamide] | B (1-10 μg/mL) | A | A (<1 μg/mL) | C (2-4 μg/mL) | A (<1 μg/mL) | A | D (5-7 μg/mL) | A (key: A: <1 μg/mL; B: 1-10 μg/mL; C: 11-50 μg/mL; D: 51-100 μg/mL; E: >100 μg/mL) | – | –
2 | C[C@@H](O)[C@H](NC(=O)c1ccc(C#CC#Cc2ccccc2N)cc1)C(=O)NO [CPD-013, (2S,3R)-2-{4′-[(2″-aminophenyl)buta-1′,3′-diynyl]benzamido}-1,3-dihydroxybutanamide] | C (11-50 μg/mL) | A | B (1-10 μg/mL) | B (0.1-1 μg/mL) | A (<1 μg/mL) | A | C (2-4 μg/mL) | A (key: A: <1 μg/mL; B: 1-10 μg/mL; C: 11-50 μg/mL; D: 51-100 μg/mL; E: >100 μg/mL) | – | –
3 | CC(C)(N)[C@H](NC(=O)c1ccc(C#CC#Cc2ccc(N)cc2)cc1)C(=O)NO [CPD-040, (2S)-3-amino-2-({4′-[4′-(4′-aminophenyl)buta-1′,3′-diyn-1-yl]phenyl}formamido)-N-hydroxy-3-methylbutanamide] | – | – | – | – | – | – | – | – | – | MIC ([1]; Escherichia coli, W3110RL, 22 h, read-out: MIC E. coli W3110RL): 1 to 10 µg/mL (≈ 2.56 to 25.6 µM); zone of inhibition at 2 µg/disc ([2]; Acinetobacter baumannii, read-out: diameter of the growth inhibition, Sus. A.b. Isolate): 6 to 10 mm; MIC ([3]; Pseudomonas aeruginosa, PAO1, 22 h, read-out: MIC P. aeruginosa (PAO1)): < 1 µg/mL; MIC ([4]; Neisseria gonorrhoeae, read-out: MIC N. gonorrhoeae FA 19): 2 to 4 µg/mL (≈ 5.12 to 10.2 µM); MIC ([5]; Escherichia coli, W3110PA, 22 h, read-out: MIC E. coli W3110PA): < 1 µg/mL; zone of inhibition at 2 µg/disc ([6]; Acinetobacter baumannii, read-out: diameter of the growth inhibition, MDR A.b. Isolate): 6 to 10 mm; MIC ([7]; Neisseria gonorrhoeae): 5 to 7 µg/mL (≈ 12.8 to 17.9 µM); MIC ([8]; Escherichia coli, W3110, 22 h, read-out: MIC E. coli W3110): < 1 µg/mL
4 | CO/N=C(\C(=O)N[C@@H]1C(=O)N2C(C(=O)O)=C(CSc3nc(=O)c(=O)[nH]n3C)CS[C@H]12)c1csc(N)n1 [ceftriaxone, reference compound] | – | A | – | – | – | A | – | – | 0.12 (≈ 0.216 µM) | –
5 | penicillin | – | – | – | – | – | – | – | – | 6 | –
